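Cells were grown in 96-well plates and exposed to each compound for 48 hours at five concentrations; endpoints were interpolated linearly between bracketing concentrations, or set to the highest concentration if not reached. TGI denotes the concentration required for complete inhibition of growth.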 Some results are limits rather than exact numbers.

One experiment concerns DU-145 prostate. Description: DTP human tumour cell line panel, 48 h.
Broadly, the TGI is the concentration giving total growth inhibition. In turn, `Nc1cccc2cc(Cl)cnc12` gave a TGI greater than 100 µM.
`COc1c(C)c(C/C=C(\C)CCCCO[Si](c2ccccc2)(c2ccccc2)C(C)(C)C)c(OC)c(OC)c1OC` registered a TGI of 37.6 µM.
On to `CC(C)CC(=O)OC[n+]1ccc(-c2c(COC(=O)NC(C)C)c(COC(=O)NC(C)C)c3n2CCC3)cc1`, for which the TGI is greater than 100 µM.
Still for that read-out and setting: then `COC(=O)C1CCC(=O)N1C(c1ccccc1)c1ccc(OC)c(OC)c1` (stereo not given), with greater than 100 µM.
Still for that read-out and setting: the result for `CC(C)C1/C(=N/O)CC(c2ccccc2)N(N=O)C1c1ccccc1` (stereo not given) reads greater than 100 µM; that for `O=[N+]([O-])C(=C1NCCN1)/C(Cl)=C(\Cl)Br`, greater than 100 µM.
For the molecule `Cc1cc(N(CCC#N)CCC#N)ccc1/C(N=Nc1ccc(Cl)cc1)=N\NC(=O)c1ccccc1`, the TGI is greater than 100 µM.

The test system of another experiment is HCC-2998 colon. Description: DTP human tumour cell line panel, 48 h.
In the case of `Nc1cccc2cc(Cl)cnc12`, the TGI is greater than 100 µM.
Turning to `COc1c(C)c(C/C=C(\C)CCCCO[Si](c2ccccc2)(c2ccccc2)C(C)(C)C)c(OC)c(OC)c1OC`, the TGI was greater than 46.4 µM.
Same read-out and setting: then `CC(C)CC(=O)OC[n+]1ccc(-c2c(COC(=O)NC(C)C)c(COC(=O)NC(C)C)c3n2CCC3)cc1`, with greater than 100 µM; and `COC(=O)C1CCC(=O)N1C(c1ccccc1)c1ccc(OC)c(OC)c1` (stereo not given), with greater than 100 µM; and `CC(C)C1/C(=N/O)CC(c2ccccc2)N(N=O)C1c1ccccc1` (stereo not given), with greater than 100 µM.
`O=[N+]([O-])C(=C1NCCN1)/C(Cl)=C(\Cl)Br` had a TGI greater than 100 µM.
Turning to `Cc1cc(N(CCC#N)CCC#N)ccc1/C(N=Nc1ccc(Cl)cc1)=N\NC(=O)c1ccccc1`, the TGI was greater than 100 µM.

In the next experiment the test system is HL-60(TB) leukemia. Description: DTP human tumour cell line panel, 48 h.
In the case of `Nc1cccc2cc(Cl)cnc12`, the TGI was greater than 100 µM.
Still for that read-out and setting: the result for `COc1c(C)c(C/C=C(\C)CCCCO[Si](c2ccccc2)(c2ccccc2)C(C)(C)C)c(OC)c(OC)c1OC` reads greater than 100 µM; that for `CC(C)CC(=O)OC[n+]1ccc(-c2c(COC(=O)NC(C)C)c(COC(=O)NC(C)C)c3n2CCC3)cc1`, greater than 100 µM; that for `COC(=O)C1CCC(=O)N1C(c1ccccc1)c1ccc(OC)c(OC)c1` (stereo not given), greater than 100 µM.
In turn, `CC(C)C1/C(=N/O)CC(c2ccccc2)N(N=O)C1c1ccccc1` (stereo not given) gave a TGI of 86.7 µM.
The same measure, in the same setting: the result for `O=[N+]([O-])C(=C1NCCN1)/C(Cl)=C(\Cl)Br` reads 28.2 µM; that for `Cc1cc(N(CCC#N)CCC#N)ccc1/C(N=Nc1ccc(Cl)cc1)=N\NC(=O)c1ccccc1`, greater than 100 µM.

A further experiment concerns HOP-62 NSCLC. Description: DTP human tumour cell line panel, 48 h.
As for `Nc1cccc2cc(Cl)cnc12`, the TGI was greater than 100 µM.
The same measure, in the same setting: the result for `COc1c(C)c(C/C=C(\C)CCCCO[Si](c2ccccc2)(c2ccccc2)C(C)(C)C)c(OC)c(OC)c1OC` reads greater than 46.4 µM; that for `CC(C)CC(=O)OC[n+]1ccc(-c2c(COC(=O)NC(C)C)c(COC(=O)NC(C)C)c3n2CCC3)cc1`, greater than 100 µM; that for `COC(=O)C1CCC(=O)N1C(c1ccccc1)c1ccc(OC)c(OC)c1` (stereo not given), greater than 100 µM.
Turning to `CC(C)C1/C(=N/O)CC(c2ccccc2)N(N=O)C1c1ccccc1` (stereo not given), the TGI was greater than 100 µM.
In turn, `O=[N+]([O-])C(=C1NCCN1)/C(Cl)=C(\Cl)Br` yielded a concentration for total growth inhibition (TGI) greater than 100 µM.
As to `Cc1cc(N(CCC#N)CCC#N)ccc1/C(N=Nc1ccc(Cl)cc1)=N\NC(=O)c1ccccc1`, the TGI is greater than 100 µM.

The subject of a further experiment is HT29 colon. Description: DTP human tumour cell line panel, 48 h.
In the case of `Nc1cccc2cc(Cl)cnc12`, the TGI was greater than 100 µM.
Consider `COc1c(C)c(C/C=C(\C)CCCCO[Si](c2ccccc2)(c2ccccc2)C(C)(C)C)c(OC)c(OC)c1OC`, for which the TGI is greater than 46.4 µM.
For `CC(C)CC(=O)OC[n+]1ccc(-c2c(COC(=O)NC(C)C)c(COC(=O)NC(C)C)c3n2CCC3)cc1`, the TGI was greater than 100 µM.
`COC(=O)C1CCC(=O)N1C(c1ccccc1)c1ccc(OC)c(OC)c1` (stereo not given) yielded a TGI greater than 100 µM.
The molecule `CC(C)C1/C(=N/O)CC(c2ccccc2)N(N=O)C1c1ccccc1` (stereo not given) came in with a TGI of 39 µM.
The same measure, in the same setting: then `O=[N+]([O-])C(=C1NCCN1)/C(Cl)=C(\Cl)Br`, with greater than 59 µM; and `Cc1cc(N(CCC#N)CCC#N)ccc1/C(N=Nc1ccc(Cl)cc1)=N\NC(=O)c1ccccc1`, with 47.6 µM.

A further experiment deals with MDA-MB-231 breast. Description: DTP human tumour cell line panel, 48 h.
`Nc1cccc2cc(Cl)cnc12`: the TGI was greater than 100 µM.
Regarding `COc1c(C)c(C/C=C(\C)CCCCO[Si](c2ccccc2)(c2ccccc2)C(C)(C)C)c(OC)c(OC)c1OC`, the TGI was greater than 100 µM.
`CC(C)CC(=O)OC[n+]1ccc(-c2c(COC(=O)NC(C)C)c(COC(=O)NC(C)C)c3n2CCC3)cc1`: the TGI is greater than 100 µM.
`COC(=O)C1CCC(=O)N1C(c1ccccc1)c1ccc(OC)c(OC)c1` (stereo not given) yielded a TGI greater than 100 µM.
For `CC(C)C1/C(=N/O)CC(c2ccccc2)N(N=O)C1c1ccccc1` (stereo not given), the TGI is greater than 100 µM.
`O=[N+]([O-])C(=C1NCCN1)/C(Cl)=C(\Cl)Br` came in with a TGI greater than 100 µM.
Regarding `Cc1cc(N(CCC#N)CCC#N)ccc1/C(N=Nc1ccc(Cl)cc1)=N\NC(=O)c1ccccc1`, the TGI was greater than 100 µM.

The next experiment deals with MDA-MB-435. Description: DTP human tumour cell line panel, 48 h.
Consider `Nc1cccc2cc(Cl)cnc12`, for which the TGI was greater than 100 µM.
`COc1c(C)c(C/C=C(\C)CCCCO[Si](c2ccccc2)(c2ccccc2)C(C)(C)C)c(OC)c(OC)c1OC` returned a TGI greater than 46.4 µM.
`CC(C)CC(=O)OC[n+]1ccc(-c2c(COC(=O)NC(C)C)c(COC(=O)NC(C)C)c3n2CCC3)cc1` gave a TGI greater than 100 µM.

Source of the values: PubChem BioAssay (NCI).
